Assay results as given in patent publication US9963432B2, “Beta-amino-isoquinolinyl amide compounds” (Aerie Pharmaceuticals, Inc., priority 2016, dated 2018).
pIC50, pKi: −log10 of the molar value. Like-named read-outs stand apart in the source and are kept apart here.

Experiments:
[1] = target: ROCK2 (Homo sapiens, UniProt O75116); test: ROCK Kinase Assay (Kinase-Glo luminescent); assay type: biochemical
Method: All compounds were initially prepared as 10 mM stocks in anhydrous dimethylsulfoxide (DMSO). […] Test compounds were then serially diluted 1:3 in DMSO for a 10-point concentration response and further diluted in the assay buffer bringing all compound concentrations to 4× final concentration in 10% DMSO. […] A 10 μL aliquot of compound from each well of the intermediate dilution plate and 10 μL of a 4× stock solution containing ATP (5 μM) and acceptor substrate (20 μM RSK2 peptide […]) were added to all wells. […] Reactions were thoroughly mixed manually, covered and allowed to incubate at room temperature for 180 min. Protein kinase activity was quantitated using Promega's Kinase-Glo™ luminescent Kinase Assay Kit according to the manufacturer's directions. ATP concentrations remaining in Test wells following the termination of the enzymatic reaction were compared against control wells containing equivalent amounts of DMSO containing no inhibitor (CTRL). […] Percent of Control (POC) values were determined for each concentration of compound tested according to the equation: POC=((Test well value−BKG)/(CTRL−BKG))*100
IC50 values were calculated using the following 4-parameter logistic curve-fitting algorithm: f(x)=(A+((B−A)/(1+((x/C)^D))))
IC50 values were converted to Ki values using the Cheng-Prusoff Equation: Ki=IC50/(1+([ATP]/Km ATP])).

[2] = system: Immortalized Human Trabecular Meshwork cells (TM-1); test: PTM-HTM Assay: human trabecular meshwork cells, focal adhesions; assay type: cell-based; settings: TM1, TM-1 cells, anti-paxillin stain, total area of focal adhesions, percent of control
Method: (§1) Porcine Trabecular Meshwork cells (PTM) were isolated from freshly obtained enucleated porcine eyes following a procedure by Rao et al.^1 Immortalized Human Trabecular Meshwork cells (TM-1) were obtained through a kind gift from Donna Peters in the Department of Ophthalmology and Visual Sciences at the University of Wisconsin. Cells were plated onto fibronectin coated glass-bottom 96-well plates and allowed to attach overnight. Media was removed and replaced with test compound in media with 1% fetal bovine serum and incubated for various times. After incubation, cells were formaldehyde fixed, triton solubilized, and stained. PTM cells were stained with Alexa Fluor®488 phalloidin (F-actin) and Hoechst 33342 (nuclei). TM-1 cells were stained with anti-paxillin followed by Alexa Fluor®488 goat-anti-mouse IgG (focal adhesions) and Hoechst 33342 (nuclei). All staining reagents were obtained through Invitrogen. Images were collected on an INCell 2200 imager with a 20× objective. The actin fiber length and total area of focal adhesions were analyzed using custom algorithms developed in the INCell Developer Toolbox, v1.9.3. Data collected were converted to percent of control (untreated cells). Curves were fit to data in GraphPad Prizm4 using sigmoidal dose-response and constraining top and bottom to 100% and 0%, respectively.

[3] = system: Porcine Trabecular Meshwork cells (PTM); test: PTM-HTM Assay: porcine trabecular meshwork cells, actin fibers; assay type: cell-based; settings: Sus scrofa, phalloidin stain, actin fiber length, percent of control
Method: as §1

[4] = IC50 converted to Ki by Cheng-Prusoff, ATP 5 μM, ROCK2 1 nM, 180 min, read-out: ROCK2 Ki

Sequence of ROCK2 (O75116 whole entry, species assumed): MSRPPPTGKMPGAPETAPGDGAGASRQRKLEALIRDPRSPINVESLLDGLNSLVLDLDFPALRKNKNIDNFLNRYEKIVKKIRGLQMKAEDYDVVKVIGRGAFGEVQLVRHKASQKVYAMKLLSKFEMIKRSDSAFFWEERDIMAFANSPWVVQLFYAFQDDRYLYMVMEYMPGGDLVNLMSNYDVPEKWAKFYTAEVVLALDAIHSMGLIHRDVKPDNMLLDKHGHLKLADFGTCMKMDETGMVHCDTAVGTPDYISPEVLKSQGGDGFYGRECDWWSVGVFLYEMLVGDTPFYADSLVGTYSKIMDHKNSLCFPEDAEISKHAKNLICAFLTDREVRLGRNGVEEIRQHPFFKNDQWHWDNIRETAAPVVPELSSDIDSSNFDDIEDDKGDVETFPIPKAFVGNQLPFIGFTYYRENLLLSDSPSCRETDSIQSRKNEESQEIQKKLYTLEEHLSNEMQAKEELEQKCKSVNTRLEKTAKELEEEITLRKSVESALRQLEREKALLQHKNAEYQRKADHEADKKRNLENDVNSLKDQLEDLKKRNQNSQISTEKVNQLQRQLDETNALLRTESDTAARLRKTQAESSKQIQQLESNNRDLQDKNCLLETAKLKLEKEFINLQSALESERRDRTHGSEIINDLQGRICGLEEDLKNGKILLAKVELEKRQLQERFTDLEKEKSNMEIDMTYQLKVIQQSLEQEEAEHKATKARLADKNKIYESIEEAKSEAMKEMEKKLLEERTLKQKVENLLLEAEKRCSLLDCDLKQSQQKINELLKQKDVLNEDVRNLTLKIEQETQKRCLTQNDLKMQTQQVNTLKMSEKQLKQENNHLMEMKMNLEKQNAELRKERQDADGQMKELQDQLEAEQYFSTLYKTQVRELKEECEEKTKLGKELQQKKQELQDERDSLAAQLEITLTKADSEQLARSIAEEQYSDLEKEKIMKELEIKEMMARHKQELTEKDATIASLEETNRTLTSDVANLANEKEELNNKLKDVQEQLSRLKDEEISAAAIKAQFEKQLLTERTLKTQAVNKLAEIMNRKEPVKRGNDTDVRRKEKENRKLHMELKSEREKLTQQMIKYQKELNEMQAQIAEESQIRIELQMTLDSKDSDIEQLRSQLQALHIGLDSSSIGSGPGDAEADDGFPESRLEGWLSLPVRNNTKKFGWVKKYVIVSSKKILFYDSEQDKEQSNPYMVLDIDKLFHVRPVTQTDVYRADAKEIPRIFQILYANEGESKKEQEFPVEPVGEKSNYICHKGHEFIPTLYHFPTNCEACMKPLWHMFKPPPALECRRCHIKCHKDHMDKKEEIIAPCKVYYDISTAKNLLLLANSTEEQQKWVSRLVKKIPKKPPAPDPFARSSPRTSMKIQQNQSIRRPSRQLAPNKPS

pIC50 [3]	pKi [1, 4]	Compound	pKi [1]	pIC50 [2]
6.29	8.48	Cc1cccc(C(CN)C(=O)Nc2ccc3cnccc3c2)c1 (centres unmarked) [Compound 14]	–	6.49
6.76	9.00	NCC(C(=O)Nc1ccc2cnccc2c1)c1ccc(F)cc1 (centres unmarked) [Compound 8]	–	6.99
5.29	8.26	NCC(C(=O)Nc1ccc2cnccc2c1)c1ccc(O)c(O)c1 (centres unmarked) [Compound 18]	–	4.96
6.70	9.00	Cc1ccccc1C(CN)C(=O)Nc1ccc2cnccc2c1 (centres unmarked) [Compound 13]	–	7.05
6.35	8.70	COc1cccc(C(CN)C(=O)Nc2ccc3cnccc3c2)c1 (centres unmarked) [Compound 19]	–	6.67
6.17	8.89	COc1ccc(C(CN)C(=O)Nc2ccc3cnccc3c2)cc1 (centres unmarked) [Compound 20]	–	6.95
5.86	8.52	NCC(C(=O)Nc1ccc2cnccc2c1)c1cccc(CO)c1 (centres unmarked) [Compound 23]	–	6.61
6.53	9.00	NCC(C(=O)Nc1ccc2cnccc2c1)c1cccc(F)c1 (centres unmarked) [Compound 7]	–	6.70
7.08	9.40	Cc1ccc(C(CN)C(=O)Nc2ccc3cnccc3c2)cc1 (centres unmarked) [Compound 15]	–	7.41
6.34	8.89	NCC(C(=O)Nc1ccc2cnccc2c1)c1cccc(O)c1 (centres unmarked) [Compound 16]	–	5.76
6.82	8.74	NCC(C(=O)Nc1ccc2cnccc2c1)c1ccc(C(F)(F)F)cc1 (centres unmarked) [Compound 22]	–	6.31
6.34	9.05	NCC(C(=O)Nc1ccc2cnccc2c1)c1cccc(Cl)c1 (centres unmarked) [Compound 10]	–	6.42
5.99	9.22	NCC(C(=O)Nc1ccc2cnccc2c1)c1ccc(O)cc1 (centres unmarked) [Compound 17]	–	6.71
6.89	9.40	NCC(C(=O)Nc1ccc2cnccc2c1)c1ccc(Cl)cc1 (centres unmarked) [Compound 11]	–	7.19

The remaining lines, values behind:

Compound	pIC50 [3]	pKi [1, 4]	pKi [1]	pIC50 [2]
NCC(C(=O)Nc1ccc2cnccc2c1)c1ccc(CO)cc1 (centres unmarked) [Compound 24]	–	–	9.15	–
NCC(C(=O)Nc1ccc2cnccc2c1)c1ccc(Cl)cc1Cl (centres unmarked) [Compound 12]	6.67	9.10	–	6.68
NCC(C(=O)Nc1ccc2cnccc2c1)c1ccccc1F (centres unmarked) [Compound 6]	6.59	9.00	–	6.86
NCC(C(=O)Nc1ccc2cnccc2c1)c1ccccc1Cl (centres unmarked) [Compound 9]	6.61	8.89	–	6.72
NCC(C(=O)Nc1ccc2cnccc2c1)c1cccc(C(F)(F)F)c1 (centres unmarked) [Compound 21]	6.22	8.57	–	6.32
NC[C@@H](C(=O)Nc1ccc2cnccc2c1)c1ccccc1 [3 (S)]	–	9.40	–	7.39
NCC(C(=O)Nc1ccc2c(O)nccc2c1)c1ccccc1 (centres unmarked) [Compound 5]	7.35	8.66	–	6.58
NCC(C(=O)Nc1ccc2cnccc2c1)c1ccccc1 (centres unmarked) [Compound 2]	–	9.10	–	–
NC[C@H](C(=O)Nc1ccc2cnccc2c1)c1ccccc1 [4 (R)]	–	7.80	–	–
